Results reported in patent US9346741B2, “Polyamine transport selective therapeutic agents with enhanced stability” (University of Central Florida Research Foundation, Inc., priority 2012, dated 2016).
“And” between values parts separate entries of the source, which are not always exact repeats. Equal values may be shown once. Read-outs that look alike come from different tables or passages of the source. Marks after values point to notes of the source that are not given here.

What was measured:
MALME-3 cells [1] = experiment: Cytotoxicity IC50 determination (MTS) in MALME-3 cells; type: cell-based, human; conditions: 96 h at 37° C., 1 mM AG, 10% FBS
Method: Armed with this insight, compounds 5a-8b were evaluated in the MALME-3M (melanoma) cell line and its non-cancerous counterpart MALME-3 obtained originally from the same patient. These matched cell lines provided a method to assess PTS selectivity for the cancer line (MALME-3M) over the non-cancerous cell line (MALME-3).
(§1) CHO and CHO-MG cells were grown in RPMI 1640 medium supplemented with 10% fetal calf serum and 1% penicillin/streptomycin. Note: the media must contain L-proline (2 μg/mL) for proper growth of the CHO-MG cells. MALME-3M cells were grown in RPMI 1640 medium supplemented with 10% FBS and 1% penicillin/streptomycin. All cells were grown at 37° C. under a humidified 5% CO2 atmosphere Aminoguanidine (1 mM) was added to the growth medium to prevent oxidation of the drugs by the enzyme (bovine serum amine oxidase) present in calf serum. Cells in early to mid-log phase were used.
(§2) Cell growth was assayed in sterile 96-well microtiter plates (Costar 3599, Corning, N.Y., USA). CHO and CHO-MG* cells were plated at 10,000 cells/mL. MALME-3M and MALME-3 cells were plated at 5,000 cells/mL. Drug solutions (10 μL per well) of appropriate concentration were added after an overnight incubation for each CHO cell line (90 μL). 48 h MALME-3M experiments were conducted using 10% Nu-Serum IV, and 96 h MALME-3M and MALME-3 experiments were conducted using 10% FBS. After exposure to the drug for 48 h (CHO, CHO-MG*, and MALME-3M) or 96 h (MALME-3M and MALME-3), cell growth was determined by measuring formazan
(§3) formation from 3-(4,5-dimethylthiazol-2-yl)-5-(3-carboxymethoxyphenyl)-2-(4-sulphenyl)-2H-tetrazolium) inner salt (MTS) using a SynergyMx Biotek microplate reader for absorbance ([…]) measurements.^24

[2] = test system: polyamine transport system (PTS), CHO-MG vs CHO cells; conditions: original CHO-MG line; cited from earlier work
CHO-MG* cells = experiment: Cytotoxicity IC50 determination (MTS) in polyamine-transport-deficient CHO-MG* cells; type: cell-based, Chinese hamster; conditions: 48 h at 37° C.
Text: (§4) CHO cells were chosen along with a mutant cell line (CHO-MG*) to comment on how the synthetic conjugates gain access to the cells.^2c-e, 6 As discussed earlier, the CHO-MG cell line is polyamine-transport deficient and represents a model for alternative modes of entry (other than PTS) including passive diffusion or use of another transporter. The CHO cell line on the other hand, represents cells with high polyamine transport activity.^7, 10c A comparison of toxicity in these two CHO cell lines allowed for a screen that would detect selective use of the polyamine transporter. This is seen where high utilization of the PTS would be very toxic to CHO cells, however, there would not be the same level of toxicity found in CHO-MG cells.^2c-e, 6 Ultimately, a CHO-MG/CHO IC50 can be determined where a high ratio would be achieved for highly PTS selective compounds.
(§5) CHO and CHO-MG cells were grown in RPMI 1640 medium supplemented with 10% fetal calf serum and 1% penicillin/streptomycin. Note: the media must contain L-proline (2 μg/mL) for proper growth of the CHO-MG cells. MALME-3M cells were grown in RPMI 1640 medium supplemented with 10% FBS and 1% penicillin/streptomycin. […] Cells in early to mid-log phase were used.
as §2, §3

[3] = test system: MALME-3M (melanoma) vs MALME-3 (normal) cells; experiment: MALME-3/MALME-3M IC50 ratio, a measure of selectivity; type: cell-based, human; conditions: 96 h; 1 mM AG
Text: These matched cell lines provided a method to assess PTS selectivity for the cancer line (MALME-3M) over the non-cancerous cell line (MALME-3).

CHO cells = experiment: in vitro; type: cell-based; conditions: for IC50: 48 h at 37° C.; for MTD (μM) in CHO (maximum tolerated dose): hamster
Text: as §4, §5, §2, §3

MALME-3M cells = experiment: Cytotoxicity IC50 determination (MTS) in MALME-3M cells; type: cell-based, human
Method: Armed with this insight, compounds 5a-8b were evaluated in the MALME-3M (melanoma) cell line and its non-cancerous counterpart MALME-3 obtained originally from the same patient. These matched cell lines provided a method to assess PTS selectivity for the cancer line (MALME-3M) over the non-cancerous cell line (MALME-3). […]
as §1, §2, §3

[4] = test system: polyamine transport system (PTS), CHO-MG* vs CHO cells; experiment: CHO-MG*/CHO IC50 ratio, a measure of PTS selectivity; type: cell-based, Chinese hamster; conditions: 48 h; for IC50 ratio w/AG (CHO-MG*/CHO): with 1 mM AG; for IC50 ratio w/o AG (CHO-MG*/CHO): without AG
Text: Compounds with high CHO-MG/CHO IC50 ratios are considered PTS selective.
as §4

[5] = test system: 60 human cancer cell lines; experiment: NCI 60 cell-line screen; type: cell-based; conditions: 5-dose assay
[6] = test system: 60 human cancer cell lines; experiment: NCI 60 cell-line screen; type: cell-based; conditions: 10 μM; 48 h
Method: Once compounds 6a-b, 7a-b, and 8a-8b were evaluated in CHO and CHO-MG*, these compounds were sent to the National Cancer institute (NCI) to conduct its 60 cell-line screen to determine if these compounds could also be potent anti-cancer agents for human cancer cell lines. […] As shown in FIGS. 2A-2C, dose response curves were generated based upon the 60 cell-line screen at different molar concentrations of each PTS targeting agent 6b, 7b, and 8b.
To generate FIGS. 2A-2C, the respective drug was dosed at 10 μM into each human cancer cell line and cell viability was assessed after a 48 h incubation at 37° C. in an environment of 5% CO2, 95% air and 100% relative humidity. A more descriptive methodology can be found at the NCI website: http://dtp.nci.nih.gov/branches/btb/ivclsp.html. Cell lines which gave bar graphs which extend to the right of the central line were more sensitive to the drug than cell lines which extended to the left of the center line.

[7] = test system: polyamine transport system (PTS) in L1210 cells; conditions: cited from earlier work
MALME-3 cells [8] = experiment: Spermidine rescue experiments in MALME-3 cells; type: cell-based, human; conditions: dosed near the IC50 value; increasing spermidine
Method: In order to validate that these drugs were toxic due to their use of the polyamine transport system, spermidine rescue experiments were conducted. Spermidine is a native polyamine and uses the PTS for cell entry. High concentrations of spermidine should outcompete the PTS-targeting drugs for cell entry. In this regard, spermidine when dosed at a non-toxic concentration should rescue the cells from the toxic effects of the PTS targeting agents. […] Both the anthryl and naphthyl systems when dosed at their IC50 concentrations gave >92% viability at 10 μM spermidine validating their use of the PTS. Rescue was observed from the initial 50% viability to >92% viability after co-dosing 10 μM spermidine.
As stated above, in an effort to determine if the cytotoxicities seen for compounds 6-8 were polyamine transport related, MALME-3M and MALME-3 were dosed near the IC50 value of each drug. These cells were also treated with increasing amounts of spermidine to see if it could outcompete compounds 6-8 for cellular entry and thus rescue the cells. […] This supports the premise that these compounds gain access to these cells primarily via the PTS. […] Since the viability of MALME-3M cells could be partially rescued by spermidine, compounds 8a and 8b may gain access via the PTS and via non-PTS related pathway(s).

in vitro = type: cell-based; conditions: Chinese hamster
Text: as §4, §5, §2, §3

[9] = 1 mM AG 24 h prior to drug addition, read-out: CHO-MG* IC50 (μM) w/AG
[10] = without AG, read-out: CHO-MG* IC50 (μM) w/o AG
[11] = 1 mM AG 24 h prior to drug addition, read-out: CHO IC50 (μM) w/AG
[12] = without AG, read-out: CHO IC50 (μM) w/o AG
[13] = 48 h at 37° C., 1 mM AG, 10% Nu-Serum IV, read-out: MALME-3M IC50 (μM) w/ AG
[14] = 48 h at 37° C., without AG, 10% Nu-Serum IV, read-out: MALME-3M IC50 (μM) w/o AG
[15] = 96 h at 37° C., 1 mM AG, 10% FBS, read-out: MALME-3M IC50
[16] = Cricetulus griseus, CHO-MG, Table 4, 1 mM AG 24 h prior to drug addition, read-out: CHO-MG* IC50
[17] = Cricetulus griseus, CHO, Table 4, 1 mM AG 24 h prior to drug addition, read-out: CHO IC50

Row | SMILES | IC50 (MALME-3 cells [1]) | IC50 (CHO-MG* cells; [9]) | IC50 (CHO-MG* cells; [10]) | MALME-3/MALME-3M IC50 ratio [3] | IC50 (CHO cells; [11]) | IC50 (CHO cells; [12]) | IC50 (MALME-3M cells; [13]) | IC50 (MALME-3M cells; [14]) | IC50 (MALME-3M cells; [15]) | IC50 ratio w/AG (CHO-MG*/CHO) [4] | IC50 ratio w/o AG (CHO-MG*/CHO) [4] | IC50 (CHO-MG* cells; [16]) | IC50 (CHO cells; [17]) | MTD (μM) in CHO (maximum tolerated dose) (CHO cells) | viability at 48 h, 0.01 μM (in vitro) | also measured
1 | Cl.NCCCCNCCCCNCc1c2ccccc2cc2ccccc12 [Compound 5a, reference compound] | 0.83 µM | 13.7 µM | 2.2 µM | 3.1 | 0.32 µM | 1.5 µM | 0.48 µM | 0.29 µM | 0.27 µM | 43 and 42.8 | 1.4 |  |  |  |  | CHO-MG/CHO IC50 ratio [2]: 150 and 148
2 | CNCCCCNCCCCNCc1ccc(CNCCCCNCCCCNC)c2ccccc12 [Compound 7b, N1,N1′-(Naphthalene-1,4-diylbis(methylene))bis(N4-(4-(methylamino)butyl)butane-1,4-diamine)] |  |  |  | 59 |  |  |  |  |  | >2272 | >2564 |  |  |  |  | IC50 (MALME-3 cells [1]; Homo sapiens, MALME-3): 0.82 µM; IC50 (CHO-MG* cells; Cricetulus griseus, CHO-MG, 1 mM AG 24 h prior to drug addition, read-out: CHO-MG* IC50 (μM) w/AG): > 100 µM; IC50 (CHO-MG* cells; Cricetulus griseus, CHO-MG, without AG, read-out: CHO-MG* IC50 (μM) w/o AG): > 100 µM; NCI 5-dose assay, MALME-3M cell line [5]: dose dependent response; IC50 (CHO cells; Cricetulus griseus, CHO, 1 mM AG 24 h prior to drug addition, read-out: CHO IC50 (μM) w/AG): 0.044 µM; IC50 (CHO cells; Cricetulus griseus, CHO, without AG, read-out: CHO IC50 (μM) w/o AG): 0.039 µM; IC50 (MALME-3M cells; Homo sapiens, Malme-3M, 48 h at 37° C., 1 mM AG, 10% Nu-Serum IV, read-out: MALME-3M IC50 (μM) w/ AG): 0.1 µM; IC50 (MALME-3M cells; Homo sapiens, Malme-3M, 48 h at 37° C., without AG, 10% Nu-Serum IV, read-out: MALME-3M IC50 (μM) w/o AG): 0.17 µM; IC50 (MALME-3M cells; Homo sapiens, Malme-3M, 96 h at 37° C., 1 mM AG, 10% FBS, read-out: MALME-3M IC50): 0.014 µM; effect on breast cancer cell lines in the NCI 60 cell-line screen [6]: exhibited an anti-proliferation effect in breast cancer cell lines, particularly the T-47D cell line; effect on melanoma cell lines in the NCI 60 cell-line screen [6]: inhibited the proliferation of melanoma cell lines, particularly the MALME-3M cell line
3 | Cl.NCCCCNCCCCNCc1ccc(CNCCCCNCCCCN)cc1 [Compound 8a] | 0.09 µM | 19.6 µM | 56.5 µM | 18 | 0.027 µM | 10.3 µM | 0.01 µM | 0.4 µM | 0.005 µM | 727 | 5.5 |  |  |  |  | Ki ([7]; read-out: Ki in L1210 cells): 0.52 µM; Ki ([7]; unit inferred, read-out: Ki values in L1210 cells): 0.49 ± 0.02 µM; rescue by exogenous spermidine in MALME-3 (MALME-3 cells [8]): complete rescue
4 | NCCCCNCCCCNCc1cccc(CNCCCCNCCCCN)c1 [Compound 34a, N^1,N^1′-(1,3-phenylenebis(methylene))bis(N^4-(4-aminobutyl)butane-1,4-diamine)] |  |  |  |  |  |  |  |  |  | 1072 |  | 30 µM | 0.028 µM | 0.01^f μM | ~90% | 
5 | NCCCCNCCCCNCCCCNCc1cccc(CNCCCCNCCCCNCCCCN)c1 [Compound 34b, N^1,N^1′-(1,3-phenylenebis(methylene))bis(N^4-(4-((4-aminobutyl)amino)butyl)butane-1,4-diamine)] |  |  |  |  |  |  |  |  |  | 335 |  | 13.4 µM | 0.04 µM | 0.01^g μM | ~90% | 
